Measured values: patent publication US6348317B1, “Fluorescent and DNA cleavage properties of peptide/dye conjugates” (The Arizona Board of Regents, priority 1999, dated 2002)

How the values were obtained:
[1] = biological target: GRE2 dsDNA (native GRE target sequence); experiment: Thiazole orange total fluorescence titration with unlabeled DNA; conditions: TO fluorescence ex 510 nm, em 535 nm; read-out: dissociation constant, two-state binding model
Description: (§1) Fluorescence Measurements. Steady state fluorescence anisotropy measurements were carried out in 20 mM Tris (pH 7.9), 30 mM NaCl, 20 mM KCl, 1 mM MgCl2, and 5% glycerol. […] DNA samples used were either the non-labeled sequences shown in FIG. 2 or a fluorescein labeled duplex with a sequence matching GRE2 (FIG. 2).
(§2) For non-labeled DNA titrations (measuring the fluorescence from thiazole orange), the excitation wavelength was 510 nm and the emission was recorded at 535 nm with a 1.0 nm slit width. Glass cuvettes were used with a 0.3 cm path length. Titrations were performed using a constant concentration of unconjugated thiazole orange (TO) or TO-ZF and titrated with DNA as indicated.
(§3) Total fluorescence data were collected in parallel to the anisotropy measurements and were calculated from raw data as the fluorescence intensity in the vertical plane plus two times the fluorescence intensity of the horizontal plane, (TF=Ivv+2Ivh). These values were used to determine the percent of the maximum fluorescence for each point along the titration and fit to equation 2. [formula]
(§4) In equation 2, f corresponds to the fraction of TO-ZF conjugate bound at a given concentration of DNA. The concentration given as [TO(ZF)]T corresponds to either the unconjugated thiazole orange or the TOZF conjugate as indicated and [GRE]T is the total concentration of GRE binding sites. The parameter of the fit was the dissociation constant (Kd).
(§5) Titrations of the TO fluorescence upon binding of TO-ZF to unlabeled DNA were measured for the dsDNA sequences shown in FIG. 2. TO fluorescence was excited at 510 nm and collected at 535 nm. The GRE1 DNA sequence contains the same binding site as does the GRE2 DNA sequence used above, however, the GRE3 sequence contains a single mutation of the guanine in the native GRE target sequence (5′-TGTTCT-3′) to an adenine. The GRE2 and GRE3 sequences were generated for use in the photocleavage measurements described below. Finally, the GRE4 and ERE recognition sequences are from the non-specific GRE halfsite and the estrogen response element (ERE), respectively. M. A. L. Eriksson, J. Molec. Biol. 253:453-472 (1995). These are used in conjunction with the other sequences to determine the sensitivity of this probe. The DNA is not fluorescently labeled in these measurements. Therefore, the fluorescence is exclusively from thiazole orange molecules intercalated into dsDNA.
(§6) Fitting the binding curves to a two-state binding model (see Materials and Methods) results in a dissociation constant of 25 nM for GRE1 and GRE2, which contain the native GRE. Titrations of the modified GRE sequences and the ERE sequence yielded binding constants of 57 nM, 220 nM and 810 nM for the TO-ZF conjugate bound to GRE3, GRE4, and ERE, respectively.

[2] = biological target: GRE1 dsDNA (native GRE target sequence); experiment: as above; conditions: TO fluorescence ex 510 nm, em 535 nm; read-out: dissociation constant, two-state binding model
Description: as §1, §2, §3, §4, §5, §6

[3] = biological target: GRE4 dsDNA (non-specific GRE halfsite); experiment: as above; conditions: TO fluorescence ex 510 nm, em 535 nm; read-out: binding constant (dissociation constant)
Description: as §1, §2, §3, §4, §5, §6

[4] = biological target: ERE dsDNA (estrogen response element); experiment: as above; conditions: TO fluorescence ex 510 nm, em 535 nm; read-out: binding constant (dissociation constant)
Description: as §1, §2, §3, §4, §5, §6

[5] = biological target: GRE3 dsDNA (guanine of GRE changed to adenine); experiment: as above; conditions: TO fluorescence ex 510 nm, em 535 nm; read-out: binding constant (dissociation constant)
Description: as §1, §2, §3, §4, §5, §6

[6] = tested on: 5′-32P-end-labeled GRE2 duplex DNA; experiment: Radical hydroxyl footprinting; type: binding; conditions: 60 minutes in the dark at 25° C., 60 seconds reaction
Description: The protocol for radical hydroxyl footprinting reactions was adapted from previously established methods, A. Revzin, Ed., Separation, Detection and Characterization of Biological Macromolecules (1993); P. E. Nielsen, J. Molec. Recog. 3:1-25 (1990). Reaction samples comprised of the TO-ZF and 5′^-32P-end-labeled GRE2 in 20 mM Tris (pH 7.9), 40 mM NaCl, 20 mM KCl, 1 mM MgCl2 were allowed to equilibrate in the dark at room temperature for 60 minutes. Equal volumes of a freshly prepared solution of 0.2 mM [Fe(EDTA)]^2− was mixed with a 0.3% H2O2 solution and a 10 mM sodium ascorbate solution and added to the reaction sample. After a one minute incubation, the reactions were quenched with an aqueous solution of 20 mM thiourea and 10 mg/ml tRNA. The footprinting reactions were analyzed on a 15% denaturing polyacrylamide gel.
Footprinting of TO-ZF Conjugate. DNA footprinting by the TO-ZF conjugate was performed to determine if the TO-ZF conjugate was binding the same sequence as the native glucocorticoid receptor protein DNA-binding domain. More specifically, reaction samples (Maxam-Gilbert A+G and C+T sequencing reactions, radical hydroxyl cleavage of GRE2 in the presence of TO-ZF, radical hydroxyl cleavage of GRE2 in the absence of TO-ZF) contained […] duplex DNA and […] TO-ZF, 20 mM Tris (pH 7.9), 40 mM NaCl, 20 mM KCl, 1 mM MgCl2. […]

Kd [1]: 25 nM | Kd [2]: 25 nM | Kd [3]: 220 nM | Kd [4]: 810 nM | Kd [5]: 57 nM
Substance: TO-ZF: 29 amino acid single zinc finger from residues 438-465 of glucocorticoid receptor, thiazole orange coupled to a lysine ε-amine
region protected from radical hydroxyl cleavage [6]: protects a four base pair region (TTCT) within the native GRE binding sequence
